Measured values: patent US7767659B2, “Synthesis of naturally occurring ecteinascidins and related compounds” (Pharma Mar, S.A., priority 2002, dated 2010)

Assays:
[1] = tested on: LoVo-Dox; assay: Inhibition of cells growth by colorimetric assay (SRB); details: Homo sapiens, 48 h; for GI50: read-out: LOVO-DOX GI50; for CC50: read-out: LOVO-DOX LC50; for IC (TGI): read-out: LOVO-DOX TGI
Method: (§1) This form of the assay employs 96 well cell culture microplates of 9 mm diameter (Faircloth, 1988; Mosmann, 1983). Most of the cell lines are obtained from American Type Culture Collection (ATCC) derived from different human cancer types.
(§2) Cells are maintained in RPMI 1640 10% FBS, supplemented with 0.1 g/l penicillin and 0.1 g/l streptomycin sulfate and then incubated at 37° C., 5% CO2 and 98% humidity. For the experiments, cells were harvested from subconfluent cultures using trypsin and resuspended in fresh medium before plating.
(§3) Cells are seeded in 96 well microtiter plates, at 5×10^3 cells per well in aliquots of 195 μl medium, and they are allowed to attach to the plate surface by growing in drug free medium for 18 hours. Afterward, samples are added in aliquots of 5 μl in a ranging from 10 to 10^−8 μg/ml, dissolved in DMSO/EtOH/PBS (0.5:0.5:99). After 48 hours exposure, the antitumor effect are measured by the SRB methodology: cells are fixed by adding 50 μl of cold 50% (wt/vol) trichloroacetic acid (TCA) and incubating for 60 minutes at 4° C. Plates are washed with deionized water and dried. One hundred μl of SRB solution (0.4% wt/vol in 1% acetic acid) is added to each microtiter well and incubated for 10 minutes at room temperature. Unbound SRB is removed by washing with 1% acetic acid. Plates are air dried and bound stain is solubilzed with Tris buffer. Optical densities are read on a automated spectrophotometric plate reader at a single wavelength of 490 nm.
(§4) The values for mean +/− SD of data from triplicate wells are calculated. Some parameters for cellular responses can be calculated: GI=growth inhibition, TGI=total growth inhibition (cytostatic effect) and LC=cell killing (cytotoxic effect).

[2] = tested on: K-562; assay: as above; details: Homo sapiens, K562, 48 h; for GI50: read-out: K562 GI50; for CC50: read-out: K562 LC50; for IC (TGI): read-out: K562 TGI
Method: as §1, §2, §3, §4

[3] = tested on: PANC-1; assay: as above; details: Homo sapiens, PANC-1, 48 h; for GI50: read-out: PANC-1 GI50; for CC50: read-out: PANC-1 LC50; for IC (TGI): read-out: PANC-1 TGI
Method: as §1, §2, §3, §4

[4] = tested on: DU-145; assay: as above; details: Homo sapiens, DU-145, 48 h; for GI50: read-out: DU145 GI50; for CC50: read-out: DU145 LC50; for IC (TGI): read-out: DU145 TGI
Method: as §1, §2, §3, §4

[5] = tested on: LNCaP; assay: as above; details: Homo sapiens, LNCaP, 48 h; for GI50: read-out: LNCAP GI50; for CC50: read-out: LNCAP LC50; for IC (TGI): read-out: LNCAP TGI
Method: as §1, §2, §3, §4

[6] = tested on: HeLa-APL; assay: as above; details: Homo sapiens, 48 h; for GI50: read-out: HELA-APL GI50; for CC50: read-out: HELA-APL LC50; for IC (TGI): read-out: HELA-APL TGI
Method: as §1, §2, §3, §4

[7] = tested on: HeLa; assay: as above; details: Homo sapiens, HeLa, 48 h; for GI50: read-out: HELA GI50; for CC50: read-out: HELA LC50; for IC (TGI): read-out: HELA TGI
Method: as §1, §2, §3, §4

[8] = tested on: SK-BR-3; assay: as above; details: Homo sapiens, SK-BR-3, 48 h; for GI50: read-out: SK-BR3 GI50; for CC50: read-out: SK-BR3 LC50; for IC (TGI): read-out: SK-BR3 TGI
Method: as §1, §2, §3, §4

[9] = tested on: IGROV-1; assay: as above; details: Homo sapiens, IGROV-1, 48 h; for GI50: read-out: IGROV GI50; for CC50: read-out: IGROV LC50; for IC (TGI): read-out: IGROV TGI
Method: as §1, §2, §3, §4

[10] = tested on: SK-MEL-28; assay: as above; details: Homo sapiens, SK-MEL-28, 48 h; for GI50: read-out: MEL-28 GI50; for CC50: read-out: MEL-28 LC50; for IC (TGI): read-out: MEL-28 TGI
Method: as §1, §2, §3, §4

[11] = tested on: IGROV-ET; assay: as above; details: Homo sapiens, 48 h; for GI50: read-out: IGROV-ET GI50; for CC50: read-out: IGROV-ET LC50; for IC (TGI): read-out: IGROV-ET TGI
Method: as §1, §2, §3, §4

[12] = tested on: A-549; assay: cells; details: Homo sapiens, A549, 48 h; for GI50: read-out: A549 GI50; for CC50: read-out: A549 LC50; for IC (TGI): read-out: A549 TGI
Procedure, shortened: (§5)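 Colorimetric SRB read (490 nm) on triplicate wells after 48 h at 37 °C, 5% CO2. Dose range 10 to 10^−8 μg/ml; 5×10^3 cells/well pre-attached 18 h.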

[13] = tested on: LoVo; assay: cells; details: Homo sapiens, LoVo, 48 h; for GI50: read-out: LOVO GI50; for CC50: read-out: LOVO LC50; for IC (TGI): read-out: LOVO TGI
Procedure, shortened: as §5

[14] = tested on: HT-29; assay: cells; details: Homo sapiens, HT-29, 48 h; for GI50: read-out: HT29 GI50; for CC50: read-out: HT29 LC50; for IC (TGI): read-out: HT29 TGI
Procedure, shortened: as §5

COc1cc2c(cc1O)CCN[C@]21CS[C@@H]2c3c(O)c(C)c4c(c3[C@H](COC1=O)N1C2[C@@H]2N[C@@H](Cc3cc(C)c(OC)c(O)c32)[C@@H]1O)OCO4 (stereo partly drawn) [compound 68]
GI50 [1]: 0.472 µM
CC50 [1]: 14.2 µM
IC (TGI) [1]: 14.2 µM
GI50 [2]: 0.00265 µM
CC50 [2]: 0.234 µM
IC (TGI) [2]: 0.0066 µM
GI50 [3]: 0.0039 µM
CC50 [3]: 2.07 µM
IC (TGI) [3]: 0.0128 µM
GI50 [4]: 0.00468 µM
CC50 [4]: 14.2 µM
IC (TGI) [4]: 0.0015 µM
GI50 [5]: 0.00159 µM
CC50 [5]: 0.00864 µM
IC (TGI) [5]: 0.0037 µM
GI50 [6]: 0.00381 µM
CC50 [6]: 0.0104 µM
IC (TGI) [6]: 0.00632 µM
GI50 [7]: 0.004 µM
CC50 [7]: 0.0124 µM
IC (TGI) [7]: 0.00706 µM
GI50 [8]: 0.0072 µM
CC50 [8]: 14.2 µM
IC (TGI) [8]: 0.153 µM
GI50 [9]: 0.00394 µM
CC50 [9]: 0.0351 µM
IC (TGI) [9]: 0.00801 µM
GI50 [10]: 0.00545 µM
CC50 [10]: 0.0521 µM
IC (TGI) [10]: 0.0157 µM
GI50 [11]: 0.29 µM
CC50 [11]: 8.63 µM
IC (TGI) [11]: 1.66 µM
GI50 [12]: 0.0281 µM
CC50 [12]: 6.29 µM
IC (TGI) [12]: 0.113 µM
GI50 [13]: 0.012 µM
CC50 [13]: 1.93 µM
IC (TGI) [13]: 0.048 µM
GI50 [14]: 0.00666 µM
CC50 [14]: 14.2 µM
IC (TGI) [14]: 0.015 µM

COc1cc2c(cc1O)CCN[C@]21C[S+]([O-])[C@@H]2c3c(OC(C)=O)c(C)c4c(c3[C@H](COC1=O)N1C2C2c3c(cc(C)c(OC)c3O)C[C@@H]([C@@H]1O)N2C)OCO4 (stereo partly drawn) [Et-759B]
GI50 [1]: 0.192 µM
CC50 [1]: 12.9 µM
IC (TGI) [1]: 0.625 µM
GI50 [2]: 0.006 µM
CC50 [2]: 12.9 µM
IC (TGI) [2]: 0.0379 µM
GI50 [3]: 0.0355 µM
CC50 [3]: 11 µM
IC (TGI) [3]: 0.122 µM
GI50 [4]: 0.391 µM
CC50 [4]: 11.9 µM
IC (TGI) [4]: 3.2 µM
GI50 [5]: 0.00464 µM
CC50 [5]: 0.0522 µM
IC (TGI) [5]: 0.0167 µM
GI50 [6]: 0.0359 µM
CC50 [6]: 1.04 µM
IC (TGI) [6]: 0.102 µM
GI50 [7]: 0.0213 µM
CC50 [7]: 0.527 µM
IC (TGI) [7]: 0.0642 µM
GI50 [8]: 0.00537 µM
CC50 [8]: 0.0881 µM
IC (TGI) [8]: 0.0116 µM
GI50 [9]: 0.0229 µM
CC50 [9]: 10 µM
IC (TGI) [9]: 0.0652 µM
GI50 [10]: 0.0197 µM
CC50 [10]: 0.123 µM
IC (TGI) [10]: 0.0491 µM
GI50 [11]: 0.0582 µM
CC50 [11]: 1.71 µM
IC (TGI) [11]: 0.273 µM
GI50 [12]: 0.0262 µM
CC50 [12]: 0.702 µM
IC (TGI) [12]: 0.0613 µM
GI50 [13]: 0.327 µM
CC50 [13]: 0.118 µM
IC (TGI) [13]: 0.0621 µM
GI50 [14]: 0.0419 µM
CC50 [14]: 12.9 µM
IC (TGI) [14]: 2.29 µM

C=CCN1[C@@H]2c3c(cc(C)c(OC)c3O)C[C@H]1[C@H](C#N)N1C2[C@@H]2SC[C@]3(NCCc4cc(OC(=O)OC(C)(C)C)c(OC)cc43)C(=O)OC[C@H]1c1c3c(c(C)c(OC(=O)CCCCCCC)c12)OCO3 (stereo partly drawn) [compound 48]
GI50 [1]: 10.2 µM
CC50 [1]: 10.2 µM
IC (TGI) [1]: 10.2 µM
GI50 [2]: 0.515 µM
CC50 [2]: 10.2 µM
IC (TGI) [2]: 2.73 µM
GI50 [3]: 4.42 µM
CC50 [3]: 10.2 µM
IC (TGI) [3]: 10.2 µM
GI50 [4]: 2.55 µM
CC50 [4]: 10.2 µM
IC (TGI) [4]: 6.26 µM
GI50 [5]: 1.67 µM
CC50 [5]: 6.31 µM
IC (TGI) [5]: 3.24 µM
GI50 [6]: 1.87 µM
CC50 [6]: 7.87 µM
IC (TGI) [6]: 3.83 µM
GI50 [7]: 2.17 µM
CC50 [7]: 10.2 µM
IC (TGI) [7]: 5.11 µM
GI50 [8]: 0.682 µM
CC50 [8]: 10.2 µM
IC (TGI) [8]: 4 µM
GI50 [9]: 3.52 µM
CC50 [9]: 10.2 µM
IC (TGI) [9]: 10.2 µM
GI50 [10]: 3.19 µM
CC50 [10]: 10.2 µM
IC (TGI) [10]: 10.2 µM
GI50 [11]: 3.72 µM
CC50 [11]: 10.2 µM
IC (TGI) [11]: 10.2 µM
GI50 [12]: 8.1 µM
CC50 [12]: 10.2 µM
IC (TGI) [12]: 10.2 µM
GI50 [13]: 4.01 µM
CC50 [13]: 10.2 µM
IC (TGI) [13]: 10.2 µM
GI50 [14]: 6.71 µM
CC50 [14]: 10.2 µM
IC (TGI) [14]: 10.2 µM
